Measurements from patent publication US20230084927A1, “GLUCOSE UPTAKE INHIBITORS AND USES THEREOF” (METABOMED LTD., priority 2019, published 2023).

Legend:
[1] = test system: SDH-KO-HRAS cells (SDHB-deficient); assay: Cellular / differential toxicity assay (CellTiter-Glo, 3 days); type: cell-based, murine; details: Mus musculus, 72 h, toxicity, SDH-KO cells, 3 days, CellTiter-Glo; read-out: EC50 (uM) SDH-KO-HTAS-C17
Protocol: (§1) Identification of compounds that target specifically SDH-deficient cells was done by screening a library of small-molecule by using a differential toxicity screen with SDHB-proficient vs. SDHB-deficient cells (the […] cells were described in Cardaci 2015).
(§2) Cells Used for the Differential Assays: SDH-WT; SDH-KO-HRAS
(§3) Cell Culture Conditions: • Medium: DMEM-F12 medium+1 mM Glutamine+3% FBS • Plates: 96 well plate—Black, clear flat bottom • Incubation time: 3 days • Compound concentration: 10 point dilution starting from 10 uM to 0.0065 uM or a lower range when needed. • Viability assay at the end of incubation: Celltiter-Glo (CTG) from Promega.
(§4) Protocol: • Day 1: Plate cells in 96 well plate together with the appropriate concentration of compound.
(§5) Incubate for 3 days at 37° C. in 5% CO2 tissue culture incubator. • Day 4: Check viability of cells by adding CTG reagent and read luminescence in plate reader
(§6) SDH-WT and SDH-KO cells were grown in DMEM F12 supplemented with 1 mM Glutamine+3% FBS were treated with different concentrations of the indicated compounds in FIG. 11. Cell viability was determined 72 hours later by CellTiter Glue reagent (Promega), the luminescence was measured with ClarioStar reader (BMG) and the EC50s were calculated by Prism.
as §6, with “compounds.” for “compounds in FIG. 11.”
(§7) The cells were grown in DMEM F12 supplemented with 1 mM Glutamine+3% FBS were treated with different concentrations of the indicated compounds. Cell viability was determined 72 hours later by CellTiter Glue reagent (Promega), the luminescence was measured with ClarioStar reader (BMG) and the EC50s were calculated by Prism. Murine SDHB-WT/KO, HRAS transformed isogenic pair (FIG. 12A); UOK269, Human Tumor-derived SDHB-deficient RCC in their WT counterpart with re-expression of SDHB (FIG. 12B); and ACHN, RCC cells, and their SDHB-KO (SDHB CRISPRed out) isogenic cells (FIG. 12C).

SDH-WT cells = assay: as above; type: cell-based, murine; details: Mus musculus, 72 h, toxicity, SDH-WT cells, 3 days, CellTiter-Glo; read-out: EC50 (uM) SDH-WT
Protocol: as §1, §2, §3, §4, §5, §6
as §6, with “compounds.” for “compounds in FIG. 11.”
as §7

COCCOCCOCCOCCOCCOC(=O)c1c2c(nc3sc4c(NCCc5ccc6[nH]cnc6c5)ncnc4c13)CC(C)(C)OC2 [Compound 163]
EC50 [1]: 1 to 3 µM
EC50 (SDH-WT cells): > 10 µM

COCCOCCOCCOCCOC(=O)c1c2c(nc3sc4c(NCCc5ccc6[nH]cnc6c5)ncnc4c13)CC(C)(C)OC2 [Compound 164]
EC50 [1]: < 1 µM
EC50 (SDH-WT cells): 3 to 10 µM

COCCOCCOCCOC(=O)c1c2c(nc3sc4c(NCCc5ccc6[nH]cnc6c5)ncnc4c13)CC(C)(C)OC2 [Compound 165, 2-(2-(2-Methoxyethoxy)ethoxy)ethyl 4-((2-(1H-benzo[d]imidazol-6-yl)ethyl)amino)-8,8-dimethyl-8,10-dihydro-7H-pyrano[3″,4″:5′,6′]pyrido[3′,2′:4,5]thieno[3,2-d]pyrimidine-11-carboxylate]
EC50 [1]: 1 to 3 µM
EC50 (SDH-WT cells): > 10 µM

CC1(C)Cc2nc3c(c(S(C)(=O)=O)c2CO1)-c1ncnc(NCCc2ccc4[nH]cnc4c2)c1S3(=O)=O [Compound 166]
EC50 [1]: 3 to 10 µM
EC50 (SDH-WT cells): 3 to 10 µM

CSc1c2c(nc3sc4c(NCCc5ccc6nc[nH]c6c5)ncnc4c13)CC(C)(C)OC2 [Compound 167]
EC50 [1]: < 1 µM
EC50 (SDH-WT cells): < 1 µM

CC(=O)OC1CCc2nc3sc4c(NCCc5ccc6[nH]cnc6c5)ncnc4c3cc2C1 (stereo not shown) [Compound 168]
EC50 [1]: < 1 µM
EC50 (SDH-WT cells): 1 to 3 µM

OC1CCc2nc3sc4c(NCCc5ccc6[nH]cnc6c5)ncnc4c3cc2C1 (stereo not shown) [Compound 169]
EC50 [1]: < 1 µM
EC50 (SDH-WT cells): 1 to 3 µM

CCOC(=O)c1c2c(nc3sc4c(NCCc5ccc6[nH]cnc6c5)ncnc4c13)CC(C)(C)OC2 [Compound 170, Ethyl 4-((2-(1H-benzo[d]imidazol-5-yl)ethyl)amino)-8,8-dimethyl-8,10-dihydro-7H-pyrano[3″,4″:5′,6′]pyrido[3′,2′:4,5]thieno[3,2-d]pyrimidine-11-carboxylate]
EC50 [1]: < 1 µM
EC50 (SDH-WT cells): < 1 µM

CC1(C)Cc2nc3sc4c(NCCc5ccc6[nH]cnc6c5)ncnc4c3c(C(=O)O)c2CO1 [Compound 171, 4-((2-(1H-Benzo[d]imidazol-6-yl)ethyl)amino)-8,8-dimethyl-8,10-dihydro-7H-pyrano[3″,4″:5′,6′]pyrido[3′,2′:4,5]thieno[3,2-d]pyrimidine-11-carboxylic Acid]
EC50 [1]: 3 to 10 µM
EC50 (SDH-WT cells): 3 to 10 µM

CC(CNc1ncnc2c1sc1nc3c(cc12)COC(C)(C)C3)c1ccc2c(c1)ncn2C (stereo not shown) [Compound 172]
EC50 [1]: 3 to 10 µM
EC50 (SDH-WT cells): 3 to 10 µM

Cn1cnc2cc(CCNc3ncnc4c3sc3nc5c(cc34)COC(C)(C)C5)ccc21 [Compound 173]
EC50 [1]: < 1 µM
EC50 (SDH-WT cells): 3 to 10 µM

CC1(C)Cc2nc3sc4c(NCCc5ccc(O)c([N+](=O)[O-])c5)ncnc4c3cc2CO1 [Compound 174]
EC50 [1]: 3 to 10 µM
EC50 (SDH-WT cells): < 1 µM

CC1(C)Cc2nc3sc4c(NCCc5ccc6ocnc6c5)ncnc4c3cc2CO1 [Compound 175]
EC50 [1]: 1 to 3 µM
EC50 (SDH-WT cells): 3 to 10 µM

CC(=O)OCc1nc2cc(CCNc3ncnc4c3sc3nc5c(cc34)COC(C)(C)C5)ccc2[nH]1 [Compound 176]
EC50 [1]: < 1 µM
EC50 (SDH-WT cells): 3 to 10 µM

CC(O)c1nc2cc(CCNc3ncnc4c3sc3nc5c(cc34)COC(C)(C)C5)ccc2[nH]1 (stereo not shown) [Compound 177]
EC50 [1]: 1 to 3 µM
EC50 (SDH-WT cells): 3 to 10 µM

CC(=O)c1nc2cc(CCNc3ncnc4c3sc3nc5c(cc34)COC(C)(C)C5)ccc2[nH]1 [Compound 178]
EC50 [1]: < 1 µM
EC50 (SDH-WT cells): 3 to 10 µM

CC1(C)Cc2nc3sc4c(NCCc5ccc6[nH]c(CO)nc6c5)ncnc4c3cc2CO1 [Compound 179]
EC50 [1]: < 1 µM
EC50 (SDH-WT cells): 3 to 10 µM

CNc1ccc(CCNc2ncnc3c2sc2nc4c(cc23)COC(C)(C)C4)cc1[N+](=O)[O-] [Compound 180]
EC50 [1]: < 1 µM
EC50 (SDH-WT cells): 3 to 10 µM

CNc1ccc(CCN(C)c2ncnc3c2sc2nc4c(cc23)COC(C)(C)C4)cc1[N+](=O)[O-] [Compound 181]
EC50 [1]: 3 to 10 µM
EC50 (SDH-WT cells): 3 to 10 µM

CC1(C)Cc2nc3sc4c(NCCc5ccc(NC(=O)C(F)(F)F)c([N+](=O)[O-])c5)ncnc4c3cc2CO1 [Compound 182]
EC50 [1]: 1 to 3 µM
EC50 (SDH-WT cells): 3 to 10 µM
